Measurements: ChEMBL document CHEMBL1128393 (J Med Chem, 1995)

Assays:
[1] = target: T1, Cytochrome P450 18 hydroxylase (Cytochrome P450 11B2, mitochondrial) (Homo sapiens, UniProt P19099); assay: in vitro; settings: cattle
T1 sequence (P19099 whole entry): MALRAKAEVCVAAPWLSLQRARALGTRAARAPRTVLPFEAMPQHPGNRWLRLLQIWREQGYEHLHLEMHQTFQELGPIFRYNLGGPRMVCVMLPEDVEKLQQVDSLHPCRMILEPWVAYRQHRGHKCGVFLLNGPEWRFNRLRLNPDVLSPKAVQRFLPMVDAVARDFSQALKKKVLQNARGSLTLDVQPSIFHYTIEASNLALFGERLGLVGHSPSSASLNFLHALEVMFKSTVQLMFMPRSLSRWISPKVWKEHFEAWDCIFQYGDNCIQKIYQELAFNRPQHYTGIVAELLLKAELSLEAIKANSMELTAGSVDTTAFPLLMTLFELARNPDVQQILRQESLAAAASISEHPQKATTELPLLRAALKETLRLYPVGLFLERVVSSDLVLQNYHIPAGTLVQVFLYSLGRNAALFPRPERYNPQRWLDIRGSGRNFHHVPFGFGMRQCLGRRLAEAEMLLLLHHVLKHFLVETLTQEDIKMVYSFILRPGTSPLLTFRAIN

[2] = target: T2, Cytochrome P450 17 (Steroid 17-alpha-hydroxylase/17,20 lyase) (Rattus norvegicus, UniProt P11715); assay: in vitro
T2 sequence (P11715 whole entry): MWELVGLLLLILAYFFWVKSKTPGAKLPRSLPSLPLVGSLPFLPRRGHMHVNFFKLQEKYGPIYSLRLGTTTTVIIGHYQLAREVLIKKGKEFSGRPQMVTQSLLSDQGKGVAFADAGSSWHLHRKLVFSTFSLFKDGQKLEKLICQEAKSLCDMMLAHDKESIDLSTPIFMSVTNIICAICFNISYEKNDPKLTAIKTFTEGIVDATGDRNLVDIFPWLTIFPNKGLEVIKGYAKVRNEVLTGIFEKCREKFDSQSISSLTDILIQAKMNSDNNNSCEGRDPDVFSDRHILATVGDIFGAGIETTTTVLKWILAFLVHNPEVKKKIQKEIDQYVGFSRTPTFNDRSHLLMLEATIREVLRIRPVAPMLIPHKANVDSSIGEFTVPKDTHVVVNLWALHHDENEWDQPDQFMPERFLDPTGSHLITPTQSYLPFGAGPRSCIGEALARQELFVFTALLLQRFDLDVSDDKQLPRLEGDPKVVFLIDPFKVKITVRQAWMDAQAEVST

[3] = target: T3, Cytochrome P450 11B2, mitochondrial (Rattus norvegicus, UniProt P30099)
T3 sequence (P30099 whole entry): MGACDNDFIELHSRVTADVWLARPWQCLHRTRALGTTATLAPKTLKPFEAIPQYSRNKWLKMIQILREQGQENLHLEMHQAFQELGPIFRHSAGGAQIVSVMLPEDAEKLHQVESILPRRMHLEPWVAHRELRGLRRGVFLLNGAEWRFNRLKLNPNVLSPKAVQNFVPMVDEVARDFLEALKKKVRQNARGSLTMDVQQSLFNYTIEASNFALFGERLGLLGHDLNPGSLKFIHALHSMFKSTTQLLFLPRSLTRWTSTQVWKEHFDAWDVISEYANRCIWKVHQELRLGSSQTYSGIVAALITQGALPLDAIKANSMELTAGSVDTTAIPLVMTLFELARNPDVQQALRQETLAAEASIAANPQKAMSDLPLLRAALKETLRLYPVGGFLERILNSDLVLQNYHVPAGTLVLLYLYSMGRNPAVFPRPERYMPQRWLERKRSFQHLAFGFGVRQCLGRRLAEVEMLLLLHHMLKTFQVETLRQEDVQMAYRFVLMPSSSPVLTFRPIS

[4] = target: T3, Cytochrome P450 11B2, mitochondrial; remark: listed apart in the source
[5] = target: T4, Cytochrome P450 11B1, mitochondrial (Homo sapiens, UniProt P15538)
T4 sequence (P15538 whole entry): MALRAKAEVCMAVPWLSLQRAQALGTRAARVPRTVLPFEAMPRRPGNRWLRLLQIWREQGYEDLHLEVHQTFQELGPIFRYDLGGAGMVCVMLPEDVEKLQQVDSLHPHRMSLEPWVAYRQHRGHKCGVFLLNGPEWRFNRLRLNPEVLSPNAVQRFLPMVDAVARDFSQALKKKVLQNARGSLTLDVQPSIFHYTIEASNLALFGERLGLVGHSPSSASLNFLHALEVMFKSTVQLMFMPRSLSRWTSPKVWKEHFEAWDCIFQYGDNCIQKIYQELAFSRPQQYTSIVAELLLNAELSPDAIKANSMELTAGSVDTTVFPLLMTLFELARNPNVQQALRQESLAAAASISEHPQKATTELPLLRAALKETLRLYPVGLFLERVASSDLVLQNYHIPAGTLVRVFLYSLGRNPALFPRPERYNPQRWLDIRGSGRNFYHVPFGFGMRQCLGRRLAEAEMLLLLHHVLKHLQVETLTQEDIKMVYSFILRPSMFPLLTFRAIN

[6] = target: T3, Cytochrome P450 11B2, mitochondrial; remark: listed apart in the source
[7] = target: T5, Aromatase (Rattus norvegicus, UniProt P22443); settings: in vivo, 30 mg/kg
T5 sequence (P22443 whole entry): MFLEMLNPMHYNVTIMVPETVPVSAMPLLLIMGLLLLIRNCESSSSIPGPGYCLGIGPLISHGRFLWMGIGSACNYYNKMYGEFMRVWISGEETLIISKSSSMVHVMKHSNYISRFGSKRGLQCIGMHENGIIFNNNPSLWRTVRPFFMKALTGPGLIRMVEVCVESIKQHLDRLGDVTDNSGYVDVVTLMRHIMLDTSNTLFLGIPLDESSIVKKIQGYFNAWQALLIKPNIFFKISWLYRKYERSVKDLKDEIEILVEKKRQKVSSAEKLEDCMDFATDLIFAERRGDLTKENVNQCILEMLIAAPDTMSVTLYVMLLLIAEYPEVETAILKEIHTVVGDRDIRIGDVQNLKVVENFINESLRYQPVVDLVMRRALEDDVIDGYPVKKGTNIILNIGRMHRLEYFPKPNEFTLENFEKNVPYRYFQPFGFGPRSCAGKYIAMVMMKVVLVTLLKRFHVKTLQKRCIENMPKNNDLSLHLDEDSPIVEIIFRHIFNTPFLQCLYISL

[8] = target: T5, Aromatase; settings: in vivo, 30 mg/kg; remark: listed apart in the source
[9] = target: T5, Aromatase; settings: in vivo, 30 mg/kg; remark: listed apart in the source
[10] = organism: Rattus norvegicus; format: functional
[11] = organism: Rattus norvegicus; format: functional; remark: listed apart in the source
[12] = organism: Rattus norvegicus; format: functional; remark: listed apart in the source
[13] = organism: Rattus norvegicus; format: functional; remark: listed apart in the source
[14] = organism: Rattus norvegicus; format: functional; remark: listed apart in the source
[15] = organism: Rattus norvegicus; format: functional; remark: listed apart in the source
[16] = target: T5, Aromatase; settings: in vivo, 30 mg/kg; remark: listed apart in the source
[17] = organism: Rattus norvegicus; format: functional; remark: listed apart in the source
[18] = target: T5, Aromatase; settings: in vivo, 30 mg/kg; remark: listed apart in the source
[19] = organism: Rattus norvegicus; format: functional; remark: listed apart in the source
[20] = target: T6, Steroid 17-alpha-hydroxylase/17,20 lyase (Rattus norvegicus, UniProt P11715); settings: 125 µM
T6 sequence (P11715 whole entry): T2 sequence (P11715 whole entry)

[21] = organism: Rattus norvegicus; format: functional; remark: listed apart in the source
[22] = organism: Rattus norvegicus; format: functional; remark: listed apart in the source
[23] = organism: Rattus norvegicus; format: functional; remark: listed apart in the source
[24] = organism: Rattus norvegicus; format: functional; remark: listed apart in the source
[25] = organism: Rattus norvegicus; format: functional; remark: listed apart in the source
[26] = organism: Rattus norvegicus; format: functional; remark: listed apart in the source
[27] = organism: Rattus norvegicus; format: functional; remark: listed apart in the source
[28] = organism: Rattus norvegicus; format: functional; remark: listed apart in the source
[29] = organism: Rattus norvegicus; format: functional; remark: listed apart in the source
[30] = target: T5, Aromatase
[31] = organism: Rattus norvegicus; format: functional; remark: listed apart in the source

Question: How did the inhibition at 1 µM [1] turn out when `COc1cccc2c1CCC1C(c3ccncc3)C21` (stereo not given) was run?
Answer: 38%

Question: And the inhibition at 125 µM [2]?
Answer: 51%

Question: What does the source list for `CCC1(c2ccc(N)cc2)CCC(=O)NC1=O` (stereo not given) [AMINOGLUTETHIMIDE]?
Answer: IC50 [3]: 80 µM; IC50 [4]: 50 µM

Question: Which inhibition at 125 µM [2] does the source give for `COc1ccc2c(c1)C1C(CC2)C1c1ccncc1` (single isomer, unassigned; (+)) here?
Answer: 54%

Question: And the IC50 [5]?
Answer: 95 µM

Question: What about the IC50 [6] of the same compound?
Answer: 6 µM

Question: Which results are given for `C[C@]12CCC(=O)C=C1CC[C@@H]1[C@@H]2CC[C@]2(C)C(=O)CC[C@@H]12` [ANDROSTENEDIONE]?
Answer: Mean [7]: 202; Mean [8]: 187; Mean [9]: 138

Question: For `c1ccc2c(c1)CCC1C(c3ccncc3)C21` (stereo not given), which inhibition at 1 µM [1] is on record?
Answer: 55%

Question: And the “Change of tumor area” value [10]?
Answer: 36%

Question: And the No. of tumors [11]?
Answer: 32

Question: What about the inhibition at 125 µM [2] of the same compound?
Answer: 36%

Question: And the Tumors [12]?
Answer: 28%

Question: And the IC50 [3]?
Answer: 3 µM

Question: What about the Tumors [13] of the same compound?
Answer: 16%

Question: And the Tumors [14]?
Answer: 47%

Question: What about the No. of tumors [15] of the same compound?
Answer: 1

Question: What about the Mean [16] of the same compound?
Answer: 124

Question: And the Tumors [17]?
Answer: 9%

Question: What does the source list for `COc1ccc2c(c1)C1C(CC2)C1(C)c1ccncc1` (stereo not given)?
Answer: inhibition at 125 µM [2]: 68%; Effect [18]: 139

Question: Which results are given for `COc1ccc2c(c1)C1C(CC2)C1c1ccncc1` (stereo in doubt; 4)?
Answer: Tumors [19]: 37%; Inhibition [20]: 47%; inhibition at 1 µM [1]: 45%; Change of tumor area [21]: 55%; Change of tumor area [10]: 29%; Tumors [22]: 18%; Tumors [23]: 43%; Effect [18]: 132; Tumors [24]: 0%; No. of tumors [25]: 33; No. of tumors [26]: 25; No. of tumors [27]: 5; Tumors [13]: 15%; Tumors [28]: 20%; No. of tumors [29]: 10; IC50 [5]: 75 µM; IC50 [6]: 15 µM; Tumors [14]: 52%; IC50 [30]: 0.265 µM; Tumors [31]: 15%

Question: Which IC50 [6] does the source give for `Oc1ccc2c(c1)C1C(CC2)C1c1ccncc1` (stereo not given) here?
Answer: 7 µM

Question: Which results are given for `Oc1ccc2c(c1)CCC1C(c3ccncc3)C21` (stereo not given)?
Answer: inhibition at 1 µM [1]: 36%; inhibition at 125 µM [2]: 41%

Question: How did the Inhibition [20] turn out when `COc1ccc2c(c1)C1C(CC2)C1c1ccncc1` (stereo in doubt; (-)-4) was run?
Answer: 45%

Question: And the IC50 [5]?
Answer: 30 µM

Question: What about the IC50 [6] of the same compound?
Answer: 10 µM

Question: Which Effect [18] does the source give for `COc1cc2c(cc1Br)CCC1C(c3ccncc3)C21` (stereo in doubt; 7) here?
Answer: 176
